From US20150290200A1, “INTRACELLULAR KINASE INHIBITORS” (Pharmacyclics Inc., priority 2006, published 2015)
Like-named read-outs stand apart in the source and are kept apart here.

Key:
ITK kinase domain = target: T1, ITK kinase domain (Homo sapiens, UniProt Q08881); test: In vitro kinase assay (HITHUNTER enzyme fragment complementation), ITK; assay type: biochemical
T1 construct: N-terminally His-tagged ITK kinase domain (amino acids 352-617); His (N); made in house
T1 sequence (Q08881 352-617): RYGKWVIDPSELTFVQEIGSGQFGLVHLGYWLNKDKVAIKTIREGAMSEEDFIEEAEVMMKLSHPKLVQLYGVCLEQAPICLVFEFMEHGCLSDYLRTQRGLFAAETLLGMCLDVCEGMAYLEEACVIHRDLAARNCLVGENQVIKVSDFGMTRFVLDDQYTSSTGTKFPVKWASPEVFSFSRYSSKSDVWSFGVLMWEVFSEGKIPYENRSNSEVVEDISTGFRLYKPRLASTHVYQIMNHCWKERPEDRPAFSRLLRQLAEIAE
Procedure: Compounds were screened using the HITHUNTER™ enzyme fragment complementation method (Discoverx). Briefly, a recombinantly produced, N-terminally His-tagged ITK kinase domain (amino acids 352-617) was incubated with various concentrations of individual compounds. ATP and substrate were added, and the kinase reaction was allowed to proceed for 2-16 hours. Commercially available detection reagents were added and allowed to react for 2-4 hours. The reaction was evaluated by luminescence. Initial results were confirmed using full-length recombinant ITK protein.
(§1) In order to confirm the mechanism by which compounds depicted herein interact with the kinase domain of Tec and EGFR kinases, we created a point mutant of the ITK kinase domain, whereby the key amino acid, namely C442 was mutated to alanine. The protein was expressed in a commercial baculovirus expression system using the manufacturer's general protocol (Invitrogen, pBlueBac). Protein was expressed and purified using standard techniques. […] While the activity of WT-ITK was inhibited by compounds depicted in this application, the same compounds had no activity towards the C442A mutant kinase domain.

BTK kinase domain = target: T2, BTK kinase domain (Homo sapiens, UniProt Q06187); test: In vitro kinase assay (HITHUNTER), BTK; assay type: biochemical
T2 construct: The kinase domains of BTK, LCK and ERK were expressed as recombinant purified proteins; made in house
From the text: (§2) Similarly, commercially available reagents such as HITHUNTER™ were used to evaluate the effect of compounds on the activity of additional kinases. The kinase domains of BTK, LCK and ERK were expressed as recombinant purified proteins were used for these studies.

LCK kinase domain = target: T3, LCK kinase domain (Homo sapiens, UniProt P06239); test: In vitro kinase assay (HITHUNTER), LCK; assay type: biochemical; conditions: Table 2
T3 construct: The kinase domains of BTK, LCK and ERK were expressed as recombinant purified proteins; made in house
From the text: as §2

[1] = system: T cell leukemia/lymphoma cells; test: Mouse in vivo tumor model, peritoneal lavage and FACS analysis; parameters: species or system NOD/SCID mice; conditions: ip, intraperitoneal, relative to mock group treated with vehicle, read-out: % inhibition tumor growth
Procedure: Several representative compounds were evaluated for efficacy in mouse in vivo tumor models. NOD/SCID mice were implanted intraperitoneally with T cell leukemia/lymphoma cells. One group was treated with vehicle alone (mock treatment) while the other groups were treated with several small molecule inhibitors via intraperitoneal route. Tumor growth was evaluated by peritoneal lavage and FACS analysis. Table 6 summarizes percent inhibition of tumor growth relative to a mock group treated with vehicle alone.

C442A-ITK kinase domain = target: T4, C442A-ITK kinase domain (Homo sapiens, UniProt Q08881, C442A); test: In vitro kinase assay, C442A point mutant of ITK kinase domain; assay type: biochemical; conditions: Table 8
T4 construct: we created a point mutant of the ITK kinase domain; made in house; host or cells: baculovirus expression system (Invitrogen, pBlueBac)
T4 sequence (Q08881 363-615 C442A limits assumed): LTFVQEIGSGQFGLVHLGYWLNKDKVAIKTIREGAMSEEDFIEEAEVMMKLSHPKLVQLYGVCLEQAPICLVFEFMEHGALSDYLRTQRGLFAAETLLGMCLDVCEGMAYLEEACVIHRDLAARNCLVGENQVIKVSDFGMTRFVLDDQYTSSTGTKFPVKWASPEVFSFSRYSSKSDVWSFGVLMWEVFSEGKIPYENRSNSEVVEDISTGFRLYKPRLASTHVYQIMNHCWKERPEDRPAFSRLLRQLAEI
From the text: as §1

[2] = Table 8, wild type ITK kinase domain, read-out: IC50 wild-type ITK

T3 sequence (P06239 245-498 limits assumed, species assumed): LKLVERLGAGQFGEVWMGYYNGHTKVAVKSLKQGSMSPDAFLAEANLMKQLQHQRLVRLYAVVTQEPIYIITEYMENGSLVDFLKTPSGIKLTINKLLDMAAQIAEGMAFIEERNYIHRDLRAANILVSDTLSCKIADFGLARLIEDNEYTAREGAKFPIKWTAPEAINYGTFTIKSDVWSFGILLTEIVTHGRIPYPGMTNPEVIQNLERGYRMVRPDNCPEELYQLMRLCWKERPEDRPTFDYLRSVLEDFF
T2 sequence (Q06187 402-655 limits assumed): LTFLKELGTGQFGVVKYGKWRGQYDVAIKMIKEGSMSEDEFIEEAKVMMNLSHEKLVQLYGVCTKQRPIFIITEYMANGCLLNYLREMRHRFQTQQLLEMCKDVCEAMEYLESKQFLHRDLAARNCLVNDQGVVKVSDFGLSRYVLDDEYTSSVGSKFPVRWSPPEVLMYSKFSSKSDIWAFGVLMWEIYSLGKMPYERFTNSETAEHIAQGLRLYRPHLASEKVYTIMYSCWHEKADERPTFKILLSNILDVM

SMILES | IC50 (ITK kinase domain; Table 2, read-out: IC50 ITK) [µM] | IC50 (BTK kinase domain; Table 2) [µM] | IC50 (LCK kinase domain) [µM] | other results
O=C(CCN1CCOCC1)c1cccc(Cl)c1 | 0.077 | 0.775 | 47.6 | –
COc1ccc(C(=O)CCN2CCOCC2)cc1OC [drawing 124] | 0.014 | 1.84 | 23.9 | –
COc1cc2c(cc1OC)CN(CCC(=O)c1ccc3c(c1)NC(=O)CO3)CC2 [drawing 249] | – | – | – | inhibition in vivo at 80 mg/kg [1]: 97 to 99%
CCOc1ccccc1C(=O)CCN1CCOCC1 | 1.28 | 0.556 | 705 | –
Cc1cccc(C(=O)CCN2CCOCC2)c1 | 0.56 | 3.07 | 24.4 | –
O=C(CCN1CCOCC1)c1cccc(Oc2ccccc2)c1 | 0.207 | 0.0941 | 18.5 | –
N#Cc1cccc(C(=O)CCN2CCOCC2)c1 | 0.029 | 0.643 | 413 | –
O=C(CCN1CCOCC1)c1cc2ccccc2cn1 [drawing 247] | – | – | – | inhibition in vivo at 80 mg/kg [1]: 92 to 99%
O=C(CCN1CCOCC1)c1ccccc1Br | 0.305 | 0.741 | – | IC50 LCK (LCK kinase domain): NO IC50
Cc1ccc(C(=O)CCN2CCOCC2)cc1C | 0.223 | 1.48 | 21.2 | –
O=C1COc2ccc(C(=O)CCN3CCOCC3)cc2N1 [drawing 253] | – | – | – | inhibition in vivo at 20 mg/kg ([1]; 20 mg/kg): 40%
CN(C)C1CCN(CCC(=O)c2ccc3ccccc3c2)C1 (stereo not drawn) [drawing 240] | – | – | – | inhibition in vivo at 100 mg/kg [1]: 70 to 90%
O=C(CCN1CCOCC1)c1ccccc1Cl [drawing 133] | – | – | 28.1 | –
CN(C)c1cccc(C(=O)CCN2CCOCC2)c1 | 0.186 | 3.68 | 20.6 | –
CN(C)C1CCN(CCC(=O)c2ccc3ccccc3c2)C1 (stereo not drawn) [drawing 257] | – | – | – | IC50 (ITK kinase domain; [2]): 0.011 µM; IC50 (C442A-ITK kinase domain): > 10 µM
O=C(CCN1CCOCC1)c1ccc(-c2cccnc2)cc1 | – | – | – | inhibition in vivo at 100 mg/kg [1]: 99%
COc1ccc(C(=O)CCN2CCC(N(C)C)CC2)cc1OC | – | – | – | inhibition in vivo at 80 mg/kg [1]: 81 to 95%
O=C(CCN1CCOCC1)c1ccc(OC(F)(F)F)cc1 | 0.219 | 1.31 | – | IC50 LCK (LCK kinase domain): NO IC50
CN(C)C1CCN(CCC(=O)c2ccc3c(c2)NC(=O)CO3)C1 (stereo not drawn) | – | – | – | inhibition in vivo at 100 mg/kg [1]: 99%
O=C(CCN1CCOCC1)c1ccc(-c2ccccc2)cc1 | 0.0402 | 0.0369 | 8.04 | –
CS(=O)(=O)c1ccc(C(=O)CCN2CCOCC2)cc1 | 0.385 | 0.753 | 23.9 | –

SMILES | IC50 (ITK kinase domain; Table 2, read-out: IC50 ITK) [µM] | IC50 (BTK kinase domain; Table 2) [µM] | IC50 (LCK kinase domain) [µM] | other results
O=C(CCN1CCOCC1)c1ccc(F)cc1 [drawing 258] | – | – | – | IC50 (ITK kinase domain; [2]): 0.0496 µM; IC50 (C442A-ITK kinase domain): > 10 µM
COc1ccc(C(=O)CCN2CCOCC2)c(OC)c1 | 0.345 | 3.14 | 21.1 | –
CN(C)C1CCN(CCC(=O)C2=CC3NCC(=O)OC3C=C2)CC1 (stereo not drawn) | – | – | – | inhibition in vivo at 80 mg/kg [1]: 99%
O=C(CCN1CCOCC1)c1ccc(Oc2ccccc2)cc1 | 0.091 | 0.0941 | 18.5 | –
O=C(CCN1CCOCC1)c1ccc(F)c(F)c1 | 0.208 | 2.89 | 33.1 | –
CC(=O)Nc1cccc(C(=O)CCN2CCOCC2)c1 | 0.065 | 1.24 | 18.4 | –
O=C(CCN1CCOCC1)c1ccc2ccccc2c1 [drawing 129] | 0.036 | 0.039 | 20 | –
O=C(CCN1CCOCC1)c1ccccc1C(F)(F)F | 0.569 | 1.02 | – | IC50 LCK (LCK kinase domain): NO IC50
O=C1COc2ccc(C(=O)CCN3CCOCC3)cc2N1 [drawing 120] | 0.04 | 0.276 | 2.89 | –
O=C(CCN1CCOCC1)c1ccc2c(c1)OCCO2 | 0.096 | 1.54 | 20.8 | –
CN(CCC(=O)C1=CC2NCC(=O)OC2C=C1)Cc1ccc(F)cc1 (stereo not drawn) | – | – | – | inhibition in vivo at 80 mg/kg [1]: 90 to 99%
O=C(CCN1CCOCC1)c1ccc(Cl)cc1 | 0.29 | 0.682 | 25.9 | –
O=C(CCN1CCOCC1)c1c(Cl)cccc1Cl | 0.207 | 0.0807 | – | IC50 LCK (LCK kinase domain): NO IC50
Cc1ccccc1C(=O)CCN1CCOCC1 | 0.611 | 2.31 | – | IC50 LCK (LCK kinase domain): NO IC50
O=C(CCN1CCOCC1)c1cc(F)ccc1F | 0.874 | 2.58 | – | IC50 LCK (LCK kinase domain): NO IC50
NC(=O)c1ccc2cc(C(=O)CCN3CCOCC3)ccc2c1 [drawing 250] | – | – | – | inhibition in vivo at 30 mg/kg ([1]; 30 mg/kg): 99%
O=C(CCN1CCOCC1)c1cccc(F)c1 | 0.381 | 3.03 | 32.6 | –
COc1cc(OC)cc(C(=O)CCN2CCOCC2)c1 | 0.005 | 0.425 | 12.6 | –
O=C(CCN1CCOCC1)c1ccc(F)cc1C(F)(F)F | 0.468 | 1.22 | – | IC50 LCK (LCK kinase domain): NO IC50
COc1cccc(C(=O)CCN2CCOCC2)c1 | 0.035 | 0.942 | 16.4 | –
O=C(CCN1CCOCC1)c1ccc(F)cc1F | 0.056 | 0.865 | – | IC50 LCK (LCK kinase domain): NO IC50

SMILES | IC50 (ITK kinase domain; Table 2, read-out: IC50 ITK) [µM] | IC50 (BTK kinase domain; Table 2) [µM] | IC50 (LCK kinase domain) [µM] | other results
O=C(CCN1CCOCC1)c1cc(F)ccc1Cl | 0.935 | 0.993 | 29.5 | –
Cc1ccc(C(=O)CCN2CCOCC2)cc1 | 0.18 | 1.52 | 164 | –
O=C(CCN1CCOCC1)c1ccc2c(c1)OCO2 | 0.385 | 3.92 | 23.3 | –
O=C(CCN1CCOCC1)c1cccc(C(F)(F)F)c1 | 0.043 | 0.656 | 27.1 | –
O=C(CCN1CCOCC1)c1ccc(Br)cc1 | 0.104 | 0.232 | – | IC50 LCK (LCK kinase domain): NO IC50
O=C(CCN1CCOCC1)c1ccc(N2CCOCC2)cc1 | 1.41 | 4.14 | 27.1 | –
O=C(CCN1CCOCC1)c1ccccc1Cl [drawing 149] | – | – | – | IC50 LCK (LCK kinase domain): NO IC50
N#Cc1ccc(C(=O)CCN2CCOCC2)cc1 | 0.072 | 0.737 | – | IC50 LCK (LCK kinase domain): NO IC50
Cc1ccc(C(=O)CCN2CCOCC2)c(C)c1 | 0.385 | 1.48 | 25.3 | –
O=C(CCN1CCOCC1)c1ccc2ccccc2c1 [drawing 241] | – | – | – | inhibition in vivo at 100 mg/kg [1]: 85 to 98%
O=C(CCN1CCOCC1)c1cccc(Br)c1 | 0.025 | 0.365 | – | IC50 LCK (LCK kinase domain): NO IC50
O=C(CCN1CCOCC1)c1ccc(F)cc1 [drawing 122] | 0.013 | 1.41 | 27.7 | –
COc1ccc(C(=O)CCN2CCOCC2)cc1OC [drawing 242] | – | – | – | inhibition in vivo at 80 mg/kg [1]: 92 to 99%
O=C(CCN1CCC(Cc2ccccc2)CC1)c1ccc2ccccc2c1 [drawing 204] | – | – | – | IC50 (ITK kinase domain; Table 5, read-out: IC50 ITK): 0.0602 µM; IC50 (BTK kinase domain; Table 5): 0.128 µM
COc1cc2c(cc1OC)CN(CCC(=O)c1ccc3ccccc3c1)CC2 [drawing 169] | – | – | – | IC50 (ITK kinase domain; Table 3, naphthyl analog, read-out: IC50 ITK): 0.007 µM; IC50 (BTK kinase domain; Table 3, naphthyl analog): 0.0128 µM
O=C(CCN1CCOCC1)c1ccc(F)cc1 [drawing 243] | – | – | – | inhibition in vivo at 80 mg/kg [1]: 50 to 80%
O=C(CCN1CCOCC1)c1ccc(C(F)(F)F)cc1 | 0.199 | 0.474 | – | IC50 LCK (LCK kinase domain): NO IC50
O=C(CCN1CCOCC1)c1cccc(OC(F)(F)F)c1 | 0.148 | 0.774 | 28 | –
O=C(CCN1CCOCC1)c1ccc(Cl)c(Cl)c1 | 0.013 | 0.102 | 34.1 | –
O=C(CCN1CCOCC1)c1cccc2ccccc12 | 0.065 | 0.398 | 23.2 | –
O=C(CCN1CCOCC1)c1ccc2occc2c1 [drawing 246] | – | – | – | inhibition in vivo at 80 mg/kg [1]: 67 to 81%
